Experimental data published in US20140242609A1, “Diagnosis and treatment of kidney stones, methods and compositions therefor” (Washington University, priority 2013, published 2014).

How the values were obtained:
[1] = 24 hr urinalysis in metabolic cages, plasma and urine electrolytes; type: in vivo, mouse
Method: Age (9-10 weeks old) and sex (male) matched wild-type and CLDN14 KO mice were housed individually in metabolic cages (Harvard Apparatus) with free access to water and food for 24 hr. Urine was collected under mineral oil. The plasma and urine Ca^++ and Mg^2+ levels were determined with atomic flame absorption spectrophotometer (PerkinElmer). The plasma (P) and urine (U) electrolyte levels were determined with the Roche Cobas clinical analyzer (Roche Diagnostics). […] The fractional excretion of electrolytes was calculated using the following equation: FEion=V×Uion/(GFR×Pion), where GFR was calculated according to the clearance rate of creatinine (GFR=V×Ucreatinine/Pcreatinine).
Mice were housed individually in metabolic cages (Harvard Apparatus) with free access to water and food for 24 hr. Urine was collected under mineral oil. The plasma and urine Ca^++ and Mg^++ levels were determined with atomic flame absorption spectrophotometer (PerkinElmer). The creatinine levels were measured with an enzymatic method that was independent of plasma chromogens.

CLDN14 mRNA = CLDN14 mRNA levels in primary cultures / freshly isolated mouse TALH cells (real-time PCR); type: cell-based; settings: 0.01 μM; versus vehicle
Method: (§1) An immunomagnetic separation method was used to isolate the TAL cells from the mouse kidney (Hou et al., 2009). Antibodies against the TAL cell specific surface antigen, Tamm-Horsfall protein (THP), were coated onto the paramagnetic polystyrene beads (Dynabeads M-280; Dynal), allowing immunoprecipitation of the TAL cells from collagenase digested mouse kidneys. The isolated cells were plated in DMEM medium supplemented with 10% FBS, penicillin/streptomycin, and 1 mM sodium pyruvate for 16 hours, followed by immediate transfection with NFAT or antagomirs.
(§2) Total RNA including microRNA was extracted using Trizol (Invitrogen). Cellular mRNA was reverse transcribed using the Superscript-III kit (Invitrogen), followed by real-time PCR amplification using SYBR Green PCR Master Mix (Bio-Rad) and Eppendorf Realplex2S system. The design of claudin-14 primers was described above. The design of pri-miRNA primers was according to Ma et al., (2010). Results were expressed as 2^−ΔCt values with ΔCT=Ctgene−Ctβ-actin.
as §1, with “TALH” for “TAL”, “kidney. (Gong Y,” for “kidney (Hou”, “al. 2012 and Gong Y, et al. 2013)” for “al., 2009).”, “protein,” for “protein (THP),”, “treatment.” for “transfection with NFAT or antagomirs.”
Total RNA including microRNA was extracted using Trizol (Invitrogen). Cellular mRNA was reverse transcribed using the Superscript-III kit (Invitrogen), followed by real-time PCR amplification using SYBR Green PCR Master Mix (Bio-Rad) and Eppendorf Realplex2S system. […] Results were expressed as 2^−ΔCt values with ΔCT=Ctgene−Ctβ-actin. […]
Total RNA including microRNA was extracted using Trizol (Invitrogen). […] Results were expressed as 2^−ΔCt values with ΔCT=Ctgene−Ctβ-actin. […]

claudin-14 mRNA = claudin-14 mRNA levels in mouse kidney after systemic treatment (real-time PCR); type: in vivo; settings: 1 mg/kg BW−1; 4 hr
Method: NPS2143 and cinacalcet (Table 1) were dissolved in vehicle—20% (w/v) (2-Hydroxypropyl)-β-cyclodextrin solution and fed to mice with gavage syringe. Cyclosporin-A (Sandimmune; Table 1) was diluted in 0.9% saline and I.P. injected to animals. Control animals received vehicle injection (13% wiv Cremophor EL and 32.9% ethanol). For dietary Ca^2+ manipulation, animals were fed with the following diets for six consecutive days: basal diet: 0.61% Ca^2+ (TestDiet #5755); low Ca^2+ diet: 0 Ca^++ (TestDiet #5855); high Ca^2+ diet: 5% Ca^2+ (TestDiet #5AVB). All animals had free access to water and were housed under a 12 hr light cycle. Blood samples were taken by cardiac puncture rapidly after initiation of terminal anesthesia and centrifuged at 4° C. for 10 min. Kidney were dissected out and immediately frozen at −80° C.
as §2
SAHA and TsA were dissolved in 5% (w/v) ethanol/0.9% saline solution and fed to mice with gavage syringe. Furosemide was dissolved in 50% (w/v) DMSO/0.9% saline solution and I.P. injected to animals. All animals had free access to water and were housed under a 12 hr light cycle. Blood samples were taken by cardiac puncture rapidly after initiation of terminal anesthesia and centrifuged at 4° C. for 10 min. Kidney were dissected out and immediately frozen at −80° C.
Total RNA including microRNA was extracted using Trizol (Invitrogen). Cellular mRNA was reverse transcribed using the Superscript-III kit (Invitrogen), followed by real-time PCR amplification using SYBR Green PCR Master Mix (Bio-Rad) and Eppendorf Realplex2S system. The design of claudin-14 primers was described before by Gong et al., 2012. The design of pri-miRNA primers and ChIP primers was according to Gong et al., 2013. Results were expressed as 2^−ΔCt values with ΔCT=Ctgene−Ctβ-actin. […]
NPS2143 and cinacalcet (Table 9) were dissolved in vehicle −20% (w/v) (2-Hydroxypropyl)-β-cyclodextrin solution and fed to mice with gavage syringe. Cyclosporin-A (Sandimmune; Table 9) was diluted in 0.9% saline and I.P. injected to animals. Control animals received CNI vehicle injection (13% wiv Cremophor EL and 32.9% ethanol). FK506 was dissolved in CNI vehicle, diluted in 0.9% saline and I.P. injected to animals. For dietary Ca^+ manipulation, animals were fed with the following diets for six consecutive days: basal diet: 0.610% Ca^++ (TestDiet #5755); low Ca^++ diet: 0 Ca^++ (TestDiet #5855); high Ca^++ diet: 5% Ca^+ (TestDiet #5AVB). All animals had free access to water and were housed under a 12 hr light cycle. Blood samples were taken by cardiac puncture rapidly after initiation of terminal anesthesia and centrifuged at 4° C. for 10 min. Kidney were dissected out and immediately frozen at −80° C.
Total RNA including microRNA was extracted using Trizol (Invitrogen). Cellular mRNA was reverse transcribed using the Superscript-III kit (Invitrogen), followed by real-time PCR amplification using SYBR Green PCR Master Mix (Bio-Rad) and Eppendorf Realplex2S system. The design of claudin-14 primers was described before by Gong. Y., et al., 2012. The design of pri-miRNA primers was according to Ma. L., et al., 2010. Results were expressed as 2^−ΔCt values with ΔCT=Ctgene−Ctβ-actin.

CLDN14 = CLDN14 expression in cultured MKTAL cells; type: cell-based, mouse; settings: 1 nM, 10 nM and 100 nM
human CLDN16 (AF152101) = molecular target: T1, human CLDN16 (AF152101) (human, UniProt Q9Y5I7 1-235); test: cell-based or functional assay
T1 sequence (looked up): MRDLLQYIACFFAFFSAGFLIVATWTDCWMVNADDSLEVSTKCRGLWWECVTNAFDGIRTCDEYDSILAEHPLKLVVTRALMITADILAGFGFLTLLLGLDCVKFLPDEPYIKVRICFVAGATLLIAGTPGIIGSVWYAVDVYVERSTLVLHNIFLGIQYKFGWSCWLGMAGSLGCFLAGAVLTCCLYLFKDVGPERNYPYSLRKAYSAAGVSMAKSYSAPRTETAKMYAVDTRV

[2] = WT pre-treated with furosemide 40 mg/kg BW−1 per day, Veh + Furo = furosemide alone

With `NS(=O)(=O)c1cc(C(=O)O)c(NCc2ccco2)cc1Cl` [Furo, Furosemide] the ECa [1, 2] was 2.84 ± 0.78 ug/24 hr · g, the EMg [1, 2] was 13.24 ± 3.13 ug/24 hr · g and the FECa [1, 2] was 1.89 ± 0.67 %. For the same molecule, the FEMg [1, 2] was 32.83 ± 1.30 %, the PCa [1, 2] was 10.61 ± 0.43 mg/dL and the PMg [1, 2] was 2.33 ± 0.11 mg/dL.

In the case of `CC(/C=C/C(=O)NO)=C\[C@@H](C)C(=O)c1ccc(N(C)C)cc1` [TsA, Trichostatin A], the “CLDN14 mRNA levels, reduction” value (CLDN14 mRNA) is reported as 64%, the “effects on renal Ca++ and Mg++ metabolism (compared with SAHA)” value ([1]; 1 mg/kg BW−1 per day) is reported as “exerted similar effects” and the “CLDN14 mRNA levels in the kidney, decrease” value (claudin-14 mRNA) is reported as 71%.

B1: PTH: human recombinant PTH (1-84; Sigma) (protein, UniProt P01270 32-115, looked up)
Parathyroid hormone: SVSEIQLMHNLGKHLNSMERVEWLRKKLQDVHNFVALGAPLAPRDAGSQRPRKKEDNVLVESHEKSLGEADKADVNVLTKAKSQ
modifications: Parathyroid hormone
In the case of B1, the CLDN14 gene expression (CLDN14) is reported as “no significant effect”.

B2: mouse CLDN14 (AF314089) (other, UniProt Q9Z0S3 1-239, looked up)
chain: MASTAVQLLGFLLSFLGMVGTLITTILPHWRRTAHVGTNILTAVSYLKGLWMECVWHSTGIYQCQIYRSLLALPRDLQAARALMVISCLLSGMACACAVVGMKCTRCAKGTPAKTTFAVLGGALFLLAGLLCMVAVSWTTNDVVQNFYNPLLPSGMKFEIGQALYLGFISSSLSLIGGTLLCLSCQDEAPYRPYPPQSRAGATTTATAPAYRPPAAYKDNRAPSVTSAAHSGYRLNDYV
With B2 the “fold decrease of absolute Na+ permeability, CLDN14+16+19 versus CLDN16+19” value (human CLDN16 (AF152101)) was 2.43 fold and the “fold reduction of PNa by CLDN14 in CLDN16 cell background” value (human CLDN16 (AF152101)) was 2.03 fold.
